{"source": "patent US8598145B2", "about": "“Mitochondrially delivered anti-cancer compounds” (priority 2008, dated 2013)", "key": {"[1]": {"tested_on": "Bax/Bak double knockout Jurkat cell line", "experiment": "Apoptosis assay of FIG. 3B", "type": "cell-based, human", "conditions": "α-TOS 50 μM, MitoVES 5 μM", "description": "3B—Parental, Bax^−/− and […] Jurkat cells were exposed to α-TOS (T) at 50 μM and MitoVES (M) 5 μM, and apoptosis assessed.\nToxicity of α-TOS, VE11S (“VES”), MitoVE3S, MitoVE5S, MitoVE7S, MitoVE9S, MitoVE11S (“MitoVES”), MitoVE11AE (“MitoVEAE”), MitoVE11F (“MitoVEF”), MitoVE11M (“MitoVEM”), and VES4TPP towards cancer cells was assessed on the basis of IC50, as detailed in Turanek, J., et al. ((2008). Liposomal formulation of vitamin E analogs as an efficient and selective anti-cancer treatment. Clin. Cancer Res. (submitted)). Apoptosis was assessed using the Annexin V method (Weber, T. et al. Mitochondria play a central role in apoptosis induced by α-tocopheryl succinate, an agent with anticancer activity. Comparison with receptor-mediated pro-apoptotic signaling. Biochemistry 42, 4277-4291 (2003)) and dissipation of the mitochondrial inner transmembrane potential was estimated using the polychromatic probe JC-1 (Molecular Probes) (Weber, T. et al. Mitochondria play a central role in apoptosis induced by α-tocopheryl succinate, an agent with anticancer activity. Comparison with receptor-mediated pro-apoptotic signaling. Biochemistry 42, 4277-4291 (2003))."}, "adherent MCF7 cells": {"tested_on": "adherent MCF7 cells", "experiment": "ROS production by flow cytometry, adherent cells (FIG. 8)", "type": "cell-based, human", "conditions": "3 h; α-TOS 50 μM, MitoVES homologues 5 μM", "description": "Adherent MCF7 cells and the corresponding mammosphere cells (MS) were cultured and assessed for morphological changes by microscopy (A) and for expression levels of markers as indicators of “sternness” by RT-PCR (B) and flow cytometry (C), including the expression of CD44 and CD24 (D). The adherent MCF7 cells (E) and the MS cells (F) were treated with 5 μM MitoVES, 50 μM α-TOS or 10 μM parthenolide and assessed for their sensitivity to drug induced cell death. […] Adherent MCF7 cells (I) and MS cells (J) were treated for 3 h with α-TOS (50 μM) or MitoVES homologues containing different lengths in the aliphatic side chain (5 μM each, either 11, 7 or 5 carbon chain in length) and the treated cells assessed for production of reactive oxygen species (ROS) by flow cytometry.\nCellular ROS were detected indirectly by flow cytometry and directly by electron paramagnetic resonance (EPR) spectroscopy, following treatment of cells with α-TOS as indicated in the Legend to Figures. […] For indirect evaluation, cells were treated with α-TOS and reacted with dihydrodichlorofluorescein diacetate (DCF; Molecular Probes) for 30 min, and scored by flow cytometry for cells with high fluorescence, which was evaluated on the bases on increase in mean fluorescence intensity. […]"}}, "data": [{"smiles": "Cc1c(C)c2c(c(C)c1OC(=O)CCC(=O)[O-])CCC(C)(CCCCCCCCCCC[P+](c1ccccc1)(c1ccccc1)c1ccccc1)O2", "note": "(stereo not shown) [MitoVE11S]", "values": [{"measurement": "apoptosis in Bax/Bak double deficient Jurkat cells", "setting": "[1]", "result": "extremely resistant"}, {"measurement": "ROS production in adherent MCF7 cells", "setting": "adherent MCF7 cells", "result": "greater ROS accumulation"}]}, {"smiles": "Cc1c(C)c2c(c(C)c1OC(=O)CCC(=O)O)CC[C@@](C)(CCC[C@H](C)CCC[C@H](C)CCCC(C)C)O2", "note": "[α-TOS, α-tocopheryl succinate, reference compound]", "values": [{"measurement": "apoptosis in Bax/Bak double deficient Jurkat cells", "setting": "[1]", "result": "still mediates some level of killing"}, {"measurement": "ROS production in adherent MCF7 cells", "setting": "adherent MCF7 cells", "result": "significant production of ROS"}]}]}
